The record followed here is publication PMC12770330 (Scientific Reports, 2025).

Experiment [1] has as its system α-glucosidase. Put plainly: α-glucosidase inhibitory assay. It counts as biochemical, Saccharomyces cerevisiae.
Experiment [2] has as its system α-glucosidase. Put plainly: in vitro kinetic analysis of α-glucosidase inhibition. It is filed as biochemical, Saccharomyces cerevisiae.

In general, Ki refers to a dissociation constant, usually derived from enzyme kinetics or from competition with a known ligand. Higher therefore signals lower affinity.

With `CCNC(=S)NC1c2ccccc2CC1O` (stereo not drawn) [Compound 2d, 1-ethyl-3-(2-hydroxy-2,3-dihydro-1H-inden-1-yl) thiourea], in the experiment on α-glucosidase [1], the “α-glucosidase inhibitory activity (in words)” value is “inactive”.

`COc1ccc(NC(=S)NC2c3ccccc3CC2O)cc1` (stereo not drawn) [Compound 2h, 1-(2-hydroxy-2,3-dihydro-1 H-inden-1-yl)-3-(4-methoxyphenyl) thiourea]: the mode of inhibition result in the experiment on α-glucosidase [2] (Km increases, Vmax unchanged) is reported as “competitive”. The compound also had an inhibitory constant (Ki) at α-glucosidase [2] (inhibitor 5.00, 10.00, 20.00 µM, substrate 4-nitrophenyl α-D-glucopyranoside) of 7.39 ± 0.088 µM.
